Reference: ChEMBL document CHEMBL4507257, “Data for DCP probe ABT-100” (2021)

How the values were obtained:
[1] = target: NUAK family SNF1-like kinase 1 (Homo sapiens) (UniProt O60285); settings: Compound concentration 1000.0 nM
[2] = target: Tyrosine-protein kinase JAK1 (Homo sapiens) (UniProt P23458); settings: Compound concentration 1000.0 nM
[3] = target: Serine/threonine-protein kinase RIO2 (Homo sapiens) (UniProt Q9BVS4); settings: Compound concentration 1000.0 nM
[4] = target: Histamine H2 receptor (Homo sapiens) (UniProt P25021); settings: Compound concentration 10.0 uM
[5] = target: Dual specificity mitogen-activated protein kinase kinase 7 (Homo sapiens) (UniProt O14733); settings: Compound concentration 1000.0 nM
[6] = target: Cyclin-dependent kinase 4 (Homo sapiens) (UniProt P11802); settings: Compound concentration 1000.0 nM
Sequence of Cyclin-dependent kinase 4 (Homo sapiens) (P11802 whole entry): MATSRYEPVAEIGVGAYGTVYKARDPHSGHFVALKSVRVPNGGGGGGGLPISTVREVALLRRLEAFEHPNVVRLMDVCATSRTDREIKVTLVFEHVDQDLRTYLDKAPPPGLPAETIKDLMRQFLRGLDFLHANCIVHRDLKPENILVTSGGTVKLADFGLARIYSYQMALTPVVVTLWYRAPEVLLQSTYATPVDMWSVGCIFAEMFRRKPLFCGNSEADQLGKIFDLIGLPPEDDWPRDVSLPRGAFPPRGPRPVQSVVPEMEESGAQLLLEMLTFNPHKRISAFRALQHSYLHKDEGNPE

[7] = target: Serine/threonine-protein kinase TBK1 (Homo sapiens) (UniProt Q9UHD2); settings: Compound concentration 1000.0 nM
[8] = target: TGF-beta receptor type-2 (Homo sapiens) (UniProt P37173); settings: Compound concentration 1000.0 nM
[9] = target: Tyrosine-protein kinase FRK (Homo sapiens) (UniProt P42685); settings: Compound concentration 1000.0 nM
[10] = target: Ephrin type-A receptor 3 (Homo sapiens) (UniProt P29320); settings: Compound concentration 1000.0 nM
Sequence of Ephrin type-A receptor 3 (Homo sapiens) (P29320 whole entry): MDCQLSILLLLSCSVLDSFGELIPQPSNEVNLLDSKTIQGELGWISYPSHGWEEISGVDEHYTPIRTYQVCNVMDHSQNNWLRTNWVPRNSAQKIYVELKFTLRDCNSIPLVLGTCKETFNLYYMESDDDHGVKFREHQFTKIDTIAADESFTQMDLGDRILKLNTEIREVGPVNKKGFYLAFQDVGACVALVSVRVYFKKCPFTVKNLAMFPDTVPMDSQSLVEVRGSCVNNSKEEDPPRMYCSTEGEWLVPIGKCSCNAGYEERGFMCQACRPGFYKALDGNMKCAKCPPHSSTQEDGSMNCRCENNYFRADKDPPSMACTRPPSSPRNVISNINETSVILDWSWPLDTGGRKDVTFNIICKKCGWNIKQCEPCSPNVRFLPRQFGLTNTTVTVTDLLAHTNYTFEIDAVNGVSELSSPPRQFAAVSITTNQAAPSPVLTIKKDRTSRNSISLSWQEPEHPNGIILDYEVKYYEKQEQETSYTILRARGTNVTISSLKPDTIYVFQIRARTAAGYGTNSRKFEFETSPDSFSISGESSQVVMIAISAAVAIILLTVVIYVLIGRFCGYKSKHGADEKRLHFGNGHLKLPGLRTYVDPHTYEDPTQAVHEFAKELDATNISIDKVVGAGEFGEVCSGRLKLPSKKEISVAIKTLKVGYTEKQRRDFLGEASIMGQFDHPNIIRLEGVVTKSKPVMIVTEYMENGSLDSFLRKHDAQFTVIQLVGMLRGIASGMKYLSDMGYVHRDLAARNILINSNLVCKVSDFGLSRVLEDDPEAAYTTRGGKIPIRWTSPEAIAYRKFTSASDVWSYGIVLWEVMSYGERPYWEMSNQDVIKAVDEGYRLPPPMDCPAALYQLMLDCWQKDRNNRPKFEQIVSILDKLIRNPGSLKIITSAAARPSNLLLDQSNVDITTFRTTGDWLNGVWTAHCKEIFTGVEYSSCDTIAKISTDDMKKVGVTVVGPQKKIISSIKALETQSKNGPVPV

[11] = tested on: Receptor-type tyrosine-protein kinase FLT3 (Homo sapiens), P36888 [UNDEFINED MUTATION]; settings: Compound concentration 1000.0 nM
[12] = target: Mitogen-activated protein kinase kinase kinase 7 (Homo sapiens) (UniProt O43318); settings: Compound concentration 1000.0 nM
[13] = target: Cyclin-dependent kinase 11B (Homo sapiens) (UniProt P21127); settings: Compound concentration 1000.0 nM
[14] = target: Ephrin type-A receptor 1 (Homo sapiens) (UniProt P21709); settings: Compound concentration 1000.0 nM
[15] = target: Bone morphogenetic protein receptor type-1A (Homo sapiens) (UniProt P36894); settings: Compound concentration 1000.0 nM
[16] = tested on: Tyrosine-protein kinase ABL1 (Homo sapiens), P00519 [M351T]; settings: Compound concentration 1000.0 nM
[17] = target: Calcium-dependent protein kinase 1 (Plasmodium falciparum) (UniProt P62344); settings: Compound concentration 1000.0 nM
[18] = tested on: Epidermal growth factor receptor (Homo sapiens), P00533 [L858R,T790M]; settings: Compound concentration 1000.0 nM
[19] = target: AP2-associated protein kinase 1 (Homo sapiens) (UniProt Q2M2I8); settings: Compound concentration 1000.0 nM
Sequence of AP2-associated protein kinase 1 (Homo sapiens) (Q2M2I8 whole entry, looked up): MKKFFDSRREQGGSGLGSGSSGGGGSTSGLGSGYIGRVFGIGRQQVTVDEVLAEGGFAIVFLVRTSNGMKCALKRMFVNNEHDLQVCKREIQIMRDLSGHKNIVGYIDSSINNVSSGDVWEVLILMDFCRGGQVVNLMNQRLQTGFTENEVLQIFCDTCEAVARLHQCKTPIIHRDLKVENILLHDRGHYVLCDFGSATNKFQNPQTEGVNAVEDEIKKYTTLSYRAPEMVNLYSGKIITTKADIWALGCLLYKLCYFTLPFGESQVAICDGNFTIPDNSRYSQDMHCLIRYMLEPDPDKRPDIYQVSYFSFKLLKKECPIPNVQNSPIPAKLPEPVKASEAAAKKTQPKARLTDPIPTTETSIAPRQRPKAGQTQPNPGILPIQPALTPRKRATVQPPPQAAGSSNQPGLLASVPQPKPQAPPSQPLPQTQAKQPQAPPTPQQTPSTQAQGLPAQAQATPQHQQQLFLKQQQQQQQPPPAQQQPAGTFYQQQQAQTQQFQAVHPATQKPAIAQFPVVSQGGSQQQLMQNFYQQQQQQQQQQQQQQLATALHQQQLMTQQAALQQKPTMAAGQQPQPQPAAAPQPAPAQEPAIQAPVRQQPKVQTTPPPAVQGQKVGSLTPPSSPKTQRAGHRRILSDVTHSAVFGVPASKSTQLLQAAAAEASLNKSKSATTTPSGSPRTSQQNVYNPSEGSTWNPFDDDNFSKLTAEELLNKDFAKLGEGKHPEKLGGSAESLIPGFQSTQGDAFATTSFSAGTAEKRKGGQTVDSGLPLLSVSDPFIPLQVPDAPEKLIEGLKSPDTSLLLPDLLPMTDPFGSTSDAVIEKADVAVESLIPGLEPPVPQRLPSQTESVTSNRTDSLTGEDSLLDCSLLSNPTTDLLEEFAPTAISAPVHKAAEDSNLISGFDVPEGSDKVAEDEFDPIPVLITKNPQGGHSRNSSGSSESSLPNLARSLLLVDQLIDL

[20] = target: Aurora kinase A (Homo sapiens) (UniProt O14965); settings: Compound concentration 1000.0 nM
[21] = target: Myosin light chain kinase, smooth muscle (Homo sapiens) (UniProt Q15746); settings: Compound concentration 1000.0 nM
[22] = target: Serine/threonine-protein kinase 32A (Homo sapiens) (UniProt Q8WU08); settings: Compound concentration 1000.0 nM
[23] = target: Inhibitor of nuclear factor kappa-B kinase subunit epsilon (Homo sapiens) (UniProt Q14164); settings: Compound concentration 1000.0 nM
[24] = tested on: Mast/stem cell growth factor receptor Kit (Homo sapiens), P10721 [D816H]; settings: Compound concentration 1000.0 nM
[25] = tested on: Epidermal growth factor receptor (Homo sapiens), P00533 [L861Q]; settings: Compound concentration 1000.0 nM
[26] = target: Ribosomal protein S6 kinase alpha-5 (Homo sapiens) (UniProt O75582); settings: Compound concentration 1000.0 nM
[27] = target: Tyrosine-protein kinase ZAP-70 (Homo sapiens) (UniProt P43403); settings: Compound concentration 1000.0 nM
[28] = target: Serine/threonine-protein kinase Nek1 (Homo sapiens) (UniProt Q96PY6); settings: Compound concentration 1000.0 nM
[29] = target: Platelet-derived growth factor receptor beta (Homo sapiens) (UniProt P09619); settings: Compound concentration 1000.0 nM
[30] = target: Dual specificity protein kinase TTK (Homo sapiens) (UniProt P33981); settings: Compound concentration 1000.0 nM
Sequence of Dual specificity protein kinase TTK (Homo sapiens) (P33981 whole entry, canonical isoform): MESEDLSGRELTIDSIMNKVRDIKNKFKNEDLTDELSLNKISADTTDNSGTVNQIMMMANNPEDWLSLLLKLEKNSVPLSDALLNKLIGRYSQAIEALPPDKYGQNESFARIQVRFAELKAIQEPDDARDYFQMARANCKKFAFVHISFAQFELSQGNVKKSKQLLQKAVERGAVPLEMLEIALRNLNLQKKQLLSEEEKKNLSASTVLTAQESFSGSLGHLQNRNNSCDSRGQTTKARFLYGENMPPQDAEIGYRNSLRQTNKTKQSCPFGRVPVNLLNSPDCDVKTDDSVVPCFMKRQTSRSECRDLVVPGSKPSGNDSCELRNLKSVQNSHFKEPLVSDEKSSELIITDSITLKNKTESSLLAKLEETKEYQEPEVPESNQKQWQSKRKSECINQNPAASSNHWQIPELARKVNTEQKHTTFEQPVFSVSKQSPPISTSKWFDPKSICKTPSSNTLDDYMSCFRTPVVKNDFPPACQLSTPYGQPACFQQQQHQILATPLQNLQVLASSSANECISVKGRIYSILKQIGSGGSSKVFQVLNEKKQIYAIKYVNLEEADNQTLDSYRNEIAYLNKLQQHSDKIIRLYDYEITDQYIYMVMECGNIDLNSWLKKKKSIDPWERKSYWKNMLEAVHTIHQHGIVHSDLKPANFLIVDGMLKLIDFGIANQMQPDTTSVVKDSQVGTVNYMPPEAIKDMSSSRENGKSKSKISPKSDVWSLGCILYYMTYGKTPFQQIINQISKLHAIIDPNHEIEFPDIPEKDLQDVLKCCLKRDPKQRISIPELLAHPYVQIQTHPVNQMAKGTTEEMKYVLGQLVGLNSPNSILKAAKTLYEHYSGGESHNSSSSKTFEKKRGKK

[31] = target: Casein kinase I isoform delta (Homo sapiens) (UniProt P48730); settings: Compound concentration 1000.0 nM
[32] = target: Non-receptor tyrosine-protein kinase TYK2 (Homo sapiens) (UniProt P29597); settings: Compound concentration 1000.0 nM
[33] = target: Alpha-2B adrenergic receptor (Homo sapiens) (UniProt P18089); settings: Compound concentration 10.0 uM
[34] = target: Leukocyte tyrosine kinase receptor (Homo sapiens) (UniProt P29376); settings: Compound concentration 1000.0 nM
[35] = tested on: Tyrosine-protein kinase ABL1 (Homo sapiens), P00519 [Q252H]; settings: Compound concentration 1000.0 nM
[36] = tested on: Phosphatidylinositol 4,5-bisphosphate 3-kinase catalytic subunit alpha isoform (Homo sapiens), P42336 [I800L]; settings: Compound concentration 1000.0 nM
Sequence of Phosphatidylinositol 4,5-bisphosphate 3-kinase catalytic subunit alpha isoform (Homo sapiens), P42336 [I800L] (P42336 whole entry I800L, canonical isoform): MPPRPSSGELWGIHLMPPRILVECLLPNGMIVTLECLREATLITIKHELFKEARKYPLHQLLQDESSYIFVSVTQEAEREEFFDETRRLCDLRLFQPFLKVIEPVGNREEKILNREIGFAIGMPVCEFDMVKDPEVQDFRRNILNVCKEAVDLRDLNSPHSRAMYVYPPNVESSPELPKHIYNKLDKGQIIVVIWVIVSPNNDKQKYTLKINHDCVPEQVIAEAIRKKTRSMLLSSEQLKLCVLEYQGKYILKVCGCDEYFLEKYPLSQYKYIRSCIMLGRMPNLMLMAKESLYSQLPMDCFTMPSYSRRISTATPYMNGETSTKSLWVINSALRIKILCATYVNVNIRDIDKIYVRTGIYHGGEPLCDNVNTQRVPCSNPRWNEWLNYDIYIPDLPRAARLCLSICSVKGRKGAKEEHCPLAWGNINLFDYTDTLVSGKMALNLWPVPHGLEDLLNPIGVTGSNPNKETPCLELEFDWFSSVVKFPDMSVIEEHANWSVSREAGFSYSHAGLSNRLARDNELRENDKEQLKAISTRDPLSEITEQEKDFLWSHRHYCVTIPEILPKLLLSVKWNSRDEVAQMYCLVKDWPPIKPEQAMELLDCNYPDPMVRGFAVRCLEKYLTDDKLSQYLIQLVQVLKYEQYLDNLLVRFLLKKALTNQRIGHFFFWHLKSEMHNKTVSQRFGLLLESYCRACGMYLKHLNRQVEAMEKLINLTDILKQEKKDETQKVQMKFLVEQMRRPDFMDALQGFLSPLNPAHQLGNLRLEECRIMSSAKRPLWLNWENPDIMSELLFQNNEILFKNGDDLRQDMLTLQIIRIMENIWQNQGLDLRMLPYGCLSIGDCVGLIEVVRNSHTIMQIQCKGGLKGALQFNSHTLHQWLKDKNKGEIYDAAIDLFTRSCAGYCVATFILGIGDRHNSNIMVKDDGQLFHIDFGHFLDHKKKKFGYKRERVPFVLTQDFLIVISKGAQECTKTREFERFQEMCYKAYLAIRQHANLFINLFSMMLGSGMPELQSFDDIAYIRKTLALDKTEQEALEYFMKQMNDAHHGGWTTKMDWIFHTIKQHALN

[37] = target: Macrophage colony-stimulating factor 1 receptor (Homo sapiens) (UniProt P07333); settings: Compound concentration 1000.0 nM
[38] = target: Cytoplasmic tyrosine-protein kinase BMX (Homo sapiens) (UniProt P51813); settings: Compound concentration 1000.0 nM
[39] = target: Rhodopsin kinase GRK7 (Homo sapiens) (UniProt Q8WTQ7); settings: Compound concentration 1000.0 nM
[40] = target: G protein-coupled receptor kinase 3 (Homo sapiens) (UniProt P35626); settings: Compound concentration 1000.0 nM
[41] = target: Serine/threonine-protein kinase 38-like (Homo sapiens) (UniProt Q9Y2H1); settings: Compound concentration 1000.0 nM
Sequence of Serine/threonine-protein kinase 38-like (Homo sapiens) (Q9Y2H1 2-464 limits assumed): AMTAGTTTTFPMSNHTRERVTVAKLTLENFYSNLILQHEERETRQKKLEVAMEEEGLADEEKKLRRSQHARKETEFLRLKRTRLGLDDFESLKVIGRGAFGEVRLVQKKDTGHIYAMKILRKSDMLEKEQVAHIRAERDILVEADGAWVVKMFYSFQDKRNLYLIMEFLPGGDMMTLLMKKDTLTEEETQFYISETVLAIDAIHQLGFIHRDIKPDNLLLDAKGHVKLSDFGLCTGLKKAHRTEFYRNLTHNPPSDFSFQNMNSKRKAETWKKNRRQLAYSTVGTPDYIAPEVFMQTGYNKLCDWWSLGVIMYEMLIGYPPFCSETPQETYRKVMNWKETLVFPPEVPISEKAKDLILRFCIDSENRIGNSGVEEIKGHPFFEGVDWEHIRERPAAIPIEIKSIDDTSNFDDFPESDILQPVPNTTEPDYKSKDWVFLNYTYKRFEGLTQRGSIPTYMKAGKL

[42] = target: 5-hydroxytryptamine receptor 1B (Homo sapiens) (UniProt P28222); settings: Compound concentration 10.0 uM
[43] = target: Cyclin-dependent kinase 15 (Homo sapiens) (UniProt Q96Q40); settings: Compound concentration 1000.0 nM
[44] = target: Serine/threonine-protein kinase DCLK3 (Homo sapiens) (UniProt Q9C098); settings: Compound concentration 1000.0 nM
[45] = target: Serine/threonine-protein kinase 24 (Homo sapiens) (UniProt Q9Y6E0); settings: Compound concentration 1000.0 nM
Sequence of Serine/threonine-protein kinase 24 (Homo sapiens) (Q9Y6E0 whole entry, looked up): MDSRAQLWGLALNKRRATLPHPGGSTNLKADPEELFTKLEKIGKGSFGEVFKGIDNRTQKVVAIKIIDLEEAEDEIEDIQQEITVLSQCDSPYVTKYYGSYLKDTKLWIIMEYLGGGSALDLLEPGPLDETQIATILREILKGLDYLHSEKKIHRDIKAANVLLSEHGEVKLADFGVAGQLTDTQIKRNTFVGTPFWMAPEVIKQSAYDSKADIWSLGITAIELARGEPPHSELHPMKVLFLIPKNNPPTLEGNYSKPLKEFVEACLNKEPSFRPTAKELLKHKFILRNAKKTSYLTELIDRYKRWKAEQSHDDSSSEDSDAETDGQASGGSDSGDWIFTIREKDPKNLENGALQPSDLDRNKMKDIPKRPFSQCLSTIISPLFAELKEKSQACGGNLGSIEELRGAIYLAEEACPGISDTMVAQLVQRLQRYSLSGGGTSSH

SMILES: Cn1cncc1[C@@](O)(COc1ccc(C#N)cc1-c1ccc(OC(F)(F)F)cc1)c1ccc(C#N)cc1 [A-108]
- residual activity [1]: 100%
- residual activity [2]: 92%
- residual activity [3]: 100%
- inhibition [4]: 5.38%
- residual activity [5]: 96%
- residual activity [6]: 92%
- residual activity [7]: 100%
- residual activity [8]: 96%
- residual activity [9]: 100%
- residual activity [10]: 100%
- residual activity [11]: 89%
- residual activity [12]: 67%
- residual activity [13]: 92%
- residual activity [14]: 93%
- residual activity [15]: 100%
- residual activity [16]: 6.2%
- residual activity [17]: 75%
- residual activity [18]: 96%
- residual activity [19]: 94%
- residual activity [20]: 76%
- residual activity [21]: 99%
- residual activity [22]: 75%
- residual activity [23]: 100%
- residual activity [24]: 100%
- residual activity [25]: 100%
- residual activity [26]: 81%
- residual activity [27]: 100%
- residual activity [28]: 100%
- residual activity [29]: 97%
- residual activity [30]: 100%
- residual activity [31]: 94%
- residual activity [32]: 92%
- inhibition [33]: 20%
- residual activity [34]: 100%
- residual activity [35]: 84%
- residual activity [36]: 84%
- residual activity [37]: 85%
- residual activity [38]: 64%
- residual activity [39]: 81%
- residual activity [40]: 100%
- residual activity [41]: 87%
- inhibition [42]: 3.34%
- residual activity [43]: 100%
- residual activity [44]: 94%
- residual activity [45]: 100%

SMILES: Cn1cncc1[C@](O)(COc1ccc(C#N)cc1-c1ccc(OC(F)(F)F)cc1)c1ccc(C#N)cc1 [ABT-100]
- residual activity [1]: 81%
- residual activity [2]: 70%
- residual activity [3]: 83%
- inhibition [4]: 14.4%
- residual activity [5]: 100%
- residual activity [6]: 100%
- residual activity [7]: 100%
- residual activity [8]: 100%
- residual activity [9]: 100%
- residual activity [10]: 90%
- residual activity [11]: 100%
- residual activity [12]: 100%
- residual activity [13]: 100%
- residual activity [14]: 38%
- residual activity [15]: 91%
- residual activity [16]: 100%
- residual activity [17]: 88%
- residual activity [18]: 100%
- residual activity [19]: 87%
- residual activity [20]: 95%
- residual activity [21]: 88%
- residual activity [22]: 100%
- residual activity [23]: 100%
- residual activity [24]: 77%
- residual activity [25]: 71%
- residual activity [26]: 76%
- residual activity [27]: 78%
- residual activity [28]: 80%
- residual activity [29]: 100%
- residual activity [30]: 100%
- residual activity [31]: 100%
- residual activity [32]: 56%
- inhibition [33]: 8.46%
- residual activity [34]: 91%
- residual activity [35]: 100%
- residual activity [36]: 85%
- residual activity [37]: 94%
- residual activity [38]: 75%
- residual activity [39]: 100%
- residual activity [40]: 48%
- residual activity [41]: 65%
- inhibition [42]: -4.28%
- residual activity [43]: 59%
- residual activity [44]: 99%
- residual activity [45]: 90%
